{"source": "patent US20040242565A1", "about": "“Medicinal composition for prevention of or treatment for cerebrovascular disorder and cardiopathy” (priority 2001, published 2004)", "type_in_all_cases": "in vivo", "key": {"[1]": {"system": "Vasopressin Induced Rat Angina Pectoris Model", "settings": "half an hour before vasopressin 0.5 U/kg i.v., separate administration", "procedure": "Half an hour later, vasopressin (0.5 U/kg) was intravenously administered. The ST segment depression was used as an index showing the degree of a myocardial ischemia. […] ST segment in an electrocardiogram was measured for comparison with a ST segment before the vasopressin administration. […] In addition, occurrence of a myocardial ischemia was observed."}, "[2]": {"system": "Rat Cerebral Infarction Model", "test": "Inhibitory effect of cerebral infarction in rat cerebral infarction model (brain microthromboembolism)", "settings": "10 mg/kg intraperitoneally once a day until the fourth day, separate administration", "procedure": "A rat brain microthromboembolism model described in Stroke, 31, 2245-2255 (2000) was used as a cerebral infarction model. […] After the model was prepared, each drug was administered once a day until the fourth day. On the fifth day, the brain was extracted and the size of a cerebral infarction was histopathologically measured."}, "[3]": {"system": "Dog Delayed Cerebral Vasospasm Model", "test": "Effect on dog delayed cerebral vasospasm model (basilar artery diameter by angiography)", "settings": "seventh day, separate administration", "procedure": "An adult mongrel dog was anesthetized with pentobarbital and 5 ml of autologous blood was injected into cisterna magna (on the first day). On the third day, 5 ml of autologous blood was injected into cisterna magna under thiamyral anesthesia. Before the injection of autologous blood on the first day and on the seventh day, angiographin was injected into vertebral artery, followed by photographing blood vessel of basilar artery. […] As a control, physiological saline was administered into vein over 30 minutes continuously. After the administration of each drug, the blood vessel was photographed to measure the diameter of basilar artery."}}, "note": "Like-named read-outs stand apart in the source and are kept apart here.", "data": [{"compound": "isosorbide nitrate", "values": [{"measurement": "improvement of ST segment depression (index of myocardial ischemia)", "setting": "[1]; isosorbide nitrate 30 mg/kg orally", "result": "not improved"}]}, {"compound": "CC(C)NCC(O)COc1cccc2ccccc12", "note": "(centres unmarked) [propranolol]", "values": [{"measurement": "improvement of ST segment depression (index of myocardial ischemia)", "setting": "[1]; propranolol 100 mg/kg orally", "result": "not improved"}]}, {"compound": "O=C([O-])/C=C/c1ccc(Cn2ccnc2)cc1.[Na+]", "note": "[sodium ozagrel]", "values": [{"measurement": "inhibition of cerebral infarction (size measured histopathologically, fifth day)", "setting": "[2]", "result": "not inhibited"}]}, {"compound": "COCCOC(=O)C1=C(C)NC(C)=C(C(=O)OC(C)C)C1c1cccc([N+](=O)[O-])c1", "note": "(centres unmarked) [Nimodipine, nimodipine]", "values": [{"measurement": "Basilar artery diameter (diameter before blood injection: 100%)", "setting": "[3]; 0.1 mg/kg into vein over 30 minutes", "result": 55.7, "unit": "%"}, {"measurement": "Basilar artery diameter (diameter before blood injection: 100%)", "setting": "[3]; 1 mg/kg into vein over 30 minutes", "result": 58.0, "unit": "%"}]}]}
